Data on 11 compounds can be found in ChEMBL document CHEMBL1201862, “PubChem BioAssay data set” (2004).

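Where inhibition never reached the appropriate level, the endpoint shown equals the highest concentration tested. Otherwise, values were interpolated linearly from a five-concentration, 48-hour dose response in 96-well plates. GI50 is the concentration that inhibits growth by half.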 The source made the active and inactive calls. No stated cut-off is given here; in the data, active = GI50 up to about 1.1 µM and inactive = higher. Where only a bound is given, the exact number is not on record here.

The term GI50 denotes the concentration at which growth is held to half of that of the control.

Holding throughout (assay): DTP human tumour cell line panel, 48 h
The test system of assay [1] is SK-MEL-28.
In assay [2] the test system is HCT-116.
Assay [3] relates to NCI-H522.
Assay [4] relates to MDA-MB-231.
Assay [5] has as its system T47D.
Assay [6] has as its system KM12.
Assay [7] relates to SF-268.
Assay [8] has as its system SK-MEL-2.
The subject of assay [9] is MCF7.
For assay [10], the system named is SK-MEL-5.
For assay [11], the system named is 786-0.
Assay [12] deals with CCRF-CEM.
Assay [13] relates to MDA-N.
In assay [14] the test system is OVCAR-8.
For assay [15], the system named is RPMI-8226.
Assay [16] has as its system MDA-MB-435.
The subject of assay [17] is PC-3.
In assay [18] the test system is HT-29.
For assay [19], the system named is HL-60.
For assay [20], the system named is UACC-62.

Turning to `Oc1c(CN2CCOCC2)ccc2cccnc12`, the GI50 in [1] was > 10 µM (inactive); in assay [2], 6.55 µM (inactive); in assay [3], 2.62 µM (inactive); in assay [4], > 10 µM (inactive); in assay [5], 7.41 µM (inactive); in assay [6], > 10 µM (inactive). For the same compound, the GI50 in [7] was > 10 µM (inactive); in assay [8] it was > 10 µM (inactive); in [9] it was 4.14 µM (inactive); in [10] it was > 10 µM (inactive); in assay [11], > 10 µM (inactive); in assay [12], 2.54 µM (inactive). Further, the GI50 in assay [13], in assay [14], in [15], in assay [16], in [17] and in assay [18] was > 10 µM (inactive) each time.
For the compound `CC(C)=CCOC(=O)C(C)=[N+]=[N-]`, the GI50 in assay [1], in [2], in [3], in assay [4], in assay [5] and in assay [6] was > 100 µM (inactive) each time. Moreover, the GI50 in [19] is 42.6 µM (inactive); in [7], > 100 µM (inactive); in assay [20], > 100 µM (inactive); in [9], > 100 µM (inactive); in assay [10], > 100 µM (inactive); in assay [11], > 100 µM (inactive). The GI50 in assay [13], in assay [14], in assay [15], in [16], in [17] and in assay [18] was > 100 µM (inactive) in each case.
Regarding `CCN1C(c2ccccc2)=CC(c2ccccc2)(C(Cl)(Cl)Cl)C=C1c1ccccc1`, the GI50 in [1] was 3.92 µM (inactive); in assay [2], 4.66 µM (inactive); in assay [3], 5.69 µM (inactive); in assay [4], 3.4 µM (inactive); in [5] it was 0.44 µM (active); in assay [6], 3.31 µM (inactive). In addition, the GI50 in [19] is 1.1 µM (active); in assay [7], 11.5 µM (inactive); in assay [9], 5.92 µM (inactive); in assay [10], 1.7 µM (inactive); in assay [11], 9.44 µM (inactive); in [12], 5.58 µM (inactive). Moreover, the GI50 is 4.94 µM (inactive) in assay [13]; 6.49 µM (inactive) in assay [14]; 2.22 µM (inactive) in [15]; 2.74 µM (inactive) in assay [16]; 20.6 µM (inactive) in assay [17]; 3.48 µM (inactive) in [18].
Take `Cc1cc(=O)oc2c(CNC(CC(C)C)C(=O)O)c(O)ccc12` (stereo not given): the GI50 in assay [1], in assay [2], in assay [3], in assay [4], in assay [5] and in assay [6] was > 100 µM (inactive) in each case. Besides, the GI50 in assay [19], in assay [7], in [20], in assay [8], in assay [9] and in [10] was > 100 µM (inactive) throughout. Further, the GI50 in assay [11], in [13], in assay [14], in assay [15], in [16] and in assay [17] was > 100 µM (inactive) in each case. Further, the GI50 in [18] was > 100 µM (inactive).
`COc1ccc(-c2c3c(n(C4OC(COC(C)=O)C(OC(C)=O)C(OC(C)=O)C4OC(C)=O)c(=S)c2C#N)CCCC3)cc1` (stereo not given): the GI50 was 61.9 µM (inactive) in [1]; 79.4 µM (inactive) in assay [2]; 25.3 µM (inactive) in [3]; 55.8 µM (inactive) in [4]; 34.3 µM (inactive) in assay [5]; > 100 µM (inactive) in assay [6]. The GI50 is 62.5 µM (inactive) in assay [19]; 34.2 µM (inactive) in [7]; 20 µM (inactive) in assay [20]; 16.2 µM (inactive) in assay [8]; > 100 µM (inactive) in assay [9]; 34.4 µM (inactive) in [10]. Further, the GI50 in assay [11] is > 100 µM (inactive); in [12], 25.5 µM (inactive); in [13], 91.4 µM (inactive); in assay [14] it was 69 µM (inactive); in [16], > 100 µM (inactive); in [17], 19.5 µM (inactive). Moreover, in assay [18], the GI50 is > 100 µM (inactive).
Take `O=C(c1ccco1)N(C(=S)OCCOc1ccccc1)c1ccccc1`: the GI50 was 18.2 µM (inactive) in assay [1]; 17.3 µM (inactive) in assay [2]; 17.1 µM (inactive) in assay [3]; 16.4 µM (inactive) in assay [4]; 20.5 µM (inactive) in [5]; 19.5 µM (inactive) in [6]. Moreover, the GI50 in [19] is 24.3 µM (inactive); in assay [7], 18 µM (inactive); in assay [20], 16.6 µM (inactive); in assay [8] it was 19.6 µM (inactive); in [9], 20.7 µM (inactive); in [11], 19.7 µM (inactive). The GI50 in assay [12] was 20.1 µM (inactive); in [13], 18.9 µM (inactive); in assay [14], 19.8 µM (inactive); in [15], 19.8 µM (inactive); in assay [16], 16.2 µM (inactive); in assay [17] it was 24.1 µM (inactive). Besides, the GI50 in assay [18] is 19.2 µM (inactive).
Consider `Cc1cc2nnc(C(N)=O)c(N)c2cc1C`, for which the GI50 is > 100 µM (inactive) in assay [2]; 20 µM (inactive) in assay [3]; > 100 µM (inactive) in assay [4]; > 100 µM (inactive) in assay [5]; > 100 µM (inactive) in assay [6]; > 100 µM (inactive) in [19]. Moreover, the GI50 is 30.1 µM (inactive) in [7]; > 100 µM (inactive) in assay [20]; 64.7 µM (inactive) in [8]; > 100 µM (inactive) in [9]; > 100 µM (inactive) in assay [10]; 29.1 µM (inactive) in [11]. Also, the GI50 in [12] is > 100 µM (inactive); in assay [13], > 100 µM (inactive); in [14], 47.8 µM (inactive); in [15], > 100 µM (inactive); in assay [16], > 100 µM (inactive); in assay [17], > 100 µM (inactive). Further, the GI50 in [18] was > 100 µM (inactive).
Regarding `Cc1[nH]c(/C=C2\C(=O)Nc3ccccc32)c(C)c1CCC(=O)O` [ORANTINIB], the GI50 in assay [1] was 31.1 µM (inactive); in assay [2], 31.1 µM (inactive); in assay [3], 34.1 µM (inactive); in assay [4], 37.9 µM (inactive); in [5], 34.1 µM (inactive); in [6] it was 4.37 µM (inactive). Besides, the GI50 in assay [7] is 34.4 µM (inactive); in assay [20], 32.2 µM (inactive); in [8] it was 16.8 µM (inactive); in assay [9] it was 28.1 µM (inactive); in assay [10], 26.5 µM (inactive); in [11], 51.4 µM (inactive). Also, the GI50 in assay [12] is 34.7 µM (inactive); in assay [13] it was 27.2 µM (inactive); in assay [14], 40.7 µM (inactive); in assay [15], 22.8 µM (inactive); in [16], 36.5 µM (inactive); in assay [17] it was 35.7 µM (inactive).
Regarding `CCCCCCCC/C=C\CCCCCCC/C=C1/C[C@](/C=C/C(=O)OC)(CO)OC1=O`, the GI50 in assay [1] was 2.77 µM (inactive); in assay [2] it was 4.56 µM (inactive); in assay [3], 5.6 µM (inactive); in [4], 3.99 µM (inactive); in [5] it was 7.38 µM (inactive); in [6], 10.9 µM (inactive). The GI50 in [19] was 1.63 µM (inactive); in assay [7], 6.9 µM (inactive); in [20], 9.35 µM (inactive); in assay [8], 13.5 µM (inactive); in assay [9] it was 7.41 µM (inactive); in [10] it was 2.84 µM (inactive). In addition, the GI50 in assay [11] was 0.908 µM (active); in assay [12] it was 1.01 µM (active); in [13], 0.773 µM (active); in [14], 6.65 µM (inactive); in assay [16], 0.904 µM (active); in assay [17] it was 2.58 µM (inactive). The GI50 in assay [18] is 7.71 µM (inactive).
For `O=C(O)CN1CCNCCN(CC(=O)O)CCNCC1`, the GI50 was 4.75 µM (inactive) in [2]; 14.7 µM (inactive) in assay [3]; > 100 µM (inactive) in assay [4]; > 48.2 µM (inactive) in assay [5]; 5.75 µM (inactive) in assay [6]; 3.41 µM (inactive) in assay [19]. Further, the GI50 is > 100 µM (inactive) in assay [7]; 38.8 µM (inactive) in assay [20]; > 100 µM (inactive) in assay [8]; 28.2 µM (inactive) in [9]; 5.28 µM (inactive) in assay [10]; > 42.2 µM (inactive) in assay [11]. For the same compound, the GI50 was 4.8 µM (inactive) in assay [12]; 10.9 µM (inactive) in assay [13]; 42.3 µM (inactive) in [14]; 6.31 µM (inactive) in assay [15]; 33 µM (inactive) in assay [16]; 19.9 µM (inactive) in assay [17]. Besides, the GI50 in [18] was 13.5 µM (inactive).
In the case of `O=C1CSC(c2c[nH]c3ccccc23)N1c1cccc([N+](=O)[O-])c1` (stereo not given), the GI50 was > 100 µM (inactive) in assay [1]; 73.1 µM (inactive) in [2]; 95.3 µM (inactive) in assay [3]; 56.2 µM (inactive) in [4]; > 100 µM (inactive) in assay [5]; 24.4 µM (inactive) in [6]. Also, the GI50 is > 100 µM (inactive) in [19]; > 100 µM (inactive) in assay [7]; 80.5 µM (inactive) in [20]; 90.8 µM (inactive) in assay [9]; 84.3 µM (inactive) in assay [10]; > 100 µM (inactive) in [11]. Moreover, the GI50 is > 100 µM (inactive) in [12]; 34.8 µM (inactive) in [13]; > 100 µM (inactive) in assay [14]; > 100 µM (inactive) in assay [15]; 38.3 µM (inactive) in [16]; 36.1 µM (inactive) in assay [17]. Moreover, in [18], the GI50 was > 100 µM (inactive).
